Assay results taken from US6143739A, “Basic proline-amide derivatives of GE 2270 and GE 2270-like antibiotics” (Biosearch Italia S.p.A., priority 1995, dated 2000).

Experiments:
[1] = tested on: Bacteroides fragilis ATCC 25285 L1011; test: MIC by microbroth dilution; assay type: cell-based; conditions: 0.01% (w/v) BSA, 10^5 CFU/ml, read after 48 h, 37° C., anaerobic N2-CO2-H2, Wilkins-Chalgren broth
Procedure: (§1) The minimal inhibitory concentration (MIC) has been determined by microbroth dilution methodology, in the presence of 0.01% (w/v) of bovine serum albumin (BSA). BSA is added to the diluent to avoid possible adherence of the compounds of the invention to the plastic surface of the microtiter wells, as disclosed also by B. Goldstein et al., Antimicrobial Agents and Chemotherapy, 37 (1993), 741-745.
(§2) Inocula were 10^4 CFU/ml, except for Propionibacterium acnes and Bacteroides fragilis (10^5 CFU/ml).
(§3) MICs were read after 18-24 h, except for Haemophilus influenzae, P. acnes, B. fragilis (48 h).
(§4) All microorganisms were incubated at 37° C.; H. influenzae in a 5% CO2 atmosphere, anaerobes in a N2 --CO2 --H2 (80:10:10) mixture; other organisms in air.
(§5) The growth media are: Oxoid Iso-Sensitest broth for staphylococci and Enterococcus faecalis); Difco Todd Hewitt broth for streptococci; Difco brain heart infusion broth+1% Difco Supplement C for H. influenzae; Difco Wilkins-Chalgren broth for anaerobes.

[2] = tested on: Staph. epidermidis ATCC 12228 L147; test: MIC by microbroth dilution; assay type: cell-based; conditions: 0.01% (w/v) BSA, 10^4 CFU/ml, read after 18-24 h, 37° C., Iso-Sensitest broth
Procedure: as §1, §2, §3, §4, §5

Staph. haemolyticus L602 = test: MIC by microbroth dilution; assay type: cell-based; conditions: 0.01% (w/v) BSA, 10^4 CFU/ml, read after 18-24 h, 37° C., Iso-Sensitest broth
Procedure: as §1, §2, §3, §4, §5

[3] = tested on: Staphylococcus aureus L165; test: MIC by microbroth dilution; assay type: cell-based; conditions: 0.01% (w/v) BSA, 10^4 CFU/ml, read after 18-24 h, 37° C., Iso-Sensitest broth
Procedure: as §1, §2, §3, §4, §5

Strept. sanguis L1721 = test: MIC by microbroth dilution; assay type: cell-based; conditions: 0.01% (w/v) BSA, 10^4 CFU/ml, read after 18-24 h, 37° C., Todd Hewitt broth
Procedure: as §1, §2, §3, §4, §5

[4] = tested on: Streptococcus pyogenes L49; test: MIC by microbroth dilution; assay type: cell-based; conditions: 0.01% (w/v) BSA, 10^4 CFU/ml, read after 18-24 h, 37° C., Todd Hewitt broth
Procedure: as §1, §2, §3, §4, §5

Strept. pneumoniae L44 = test: MIC by microbroth dilution; assay type: cell-based; conditions: 0.01% (w/v) BSA, 10^4 CFU/ml, read after 18-24 h, 37° C., Todd Hewitt broth
Procedure: BSA is added to the diluent to avoid possible adherence of the compounds of the invention to the plastic surface of the microtiter wells, as disclosed also by B. Goldstein et al., Antimicrobial Agents and Chemotherapy, 37 (1993), 741-745. Inocula were 10^4 CFU/ml, except for Propionibacterium acnes and Bacteroides fragilis (10^5 CFU/ml). MICs were read after 18-24 h, except for Haemophilus influenzae, P. acnes, B. fragilis (48 h). All microorganisms were incubated at 37° C.; H. influenzae in a 5% CO2 atmosphere, anaerobes in a N2 --CO2 --H2 (80:10:10) mixture; other organisms in air. The growth media are: Oxoid Iso-Sensitest broth for staphylococci and Enterococcus faecalis); Difco Todd Hewitt broth for streptococci; Difco brain heart infusion broth+1% Difco Supplement C for H. influenzae; Difco Wilkins-Chalgren broth for anaerobes.

[5] = tested on: Enterococc. faecalis ATCC 7080 L149; test: MIC by microbroth dilution; assay type: cell-based, Enterococcus faecalis; conditions: 0.01% (w/v) BSA, 10^4 CFU/ml, read after 18-24 h, 37° C., Iso-Sensitest broth
Procedure: as §1, §2, §3, §4, §5

[6] = tested on: Propionibact. acnes ATCC 6919 L1014; test: MIC by microbroth dilution; assay type: cell-based, Propionibacterium acnes; conditions: 0.01% (w/v) BSA, 10^5 CFU/ml, read after 48 h, 37° C., anaerobic N2-CO2-H2, Wilkins-Chalgren broth
Procedure: as §1, §2, §3, §4, §5

[7] = tested on: Haemoph. influenzae ATCC 19418 L970; test: MIC by microbroth dilution; assay type: cell-based, Haemophilus influenzae; conditions: 0.01% (w/v) BSA, 10^4 CFU/ml, read after 48 h, 37° C., 5% CO2, brain heart infusion broth+1% Supplement C
Procedure: as §1, §2, §3, §4, §5

Strept. agalactiae L310 = test: MIC by microbroth dilution; assay type: cell-based; conditions: 0.01% (w/v) BSA, 10^4 CFU/ml, read after 18-24 h, 37° C., Todd Hewitt broth
Procedure: as §1, §2, §3, §4, §5

staphylococci isolates = test: MIC on clinical isolates; assay type: cell-based; conditions: highest MIC observed
streptococci isolates = test: MIC on clinical isolates; assay type: cell-based; conditions: highest MIC observed
enterococci isolates = test: MIC on clinical isolates; assay type: cell-based; conditions: highest MIC observed
S. aureus (L819) = test: experimental septicemia in the mouse; assay type: in vivo; conditions: immunocompetent CD-1 mice infected i.p.; intravenously once, immediately after infection; survival on the 7th day
Procedure: (§6) The antimicrobial activity of the compounds of the invention is confirmed also in experimental septicemia in the mouse. Control and treatment groups contain ten CD-1 mice (Charles River) weighing 18-22 g. Two groups of immunocompetent mice are infected intraperitoneally with 0.5 ml of bacterial suspension prepared by diluting an overnight culture of S. aureus ([…]) or S. pyogenes ([…]) with sterile peptonized saline, while one group of neutropenic mice is infected intraperitoneally with 0.5 ml of bacterial suspension prepared by diluting an overnight culture of or E. faecalis ([…]) with sterile peptonized saline. Inocula are adjusted so that untreated animals died of septicemia within 48 h. The compound to be tested is administered intravenously once, immediately after infection with S. aureus, or twice, immediately and 5 hours after infection with S. pyogenes or E. faecalis. On the 7th day, the ED50 in mg/kg is calculated by the method of Spearman and Kraber (D. J. Finney "Statistical Methods in Biological Assay", Griffin, page 524, 1952) from the percentage of surviving animals at each dose.

S. pyogenes (L49) = test: experimental septicemia in the mouse; assay type: in vivo; conditions: immunocompetent CD-1 mice infected i.p.; intravenously twice, immediately and 5 hours after infection; survival on the 7th day
Procedure: as §6

E. faecalis (L1139) = test: experimental septicemia in the mouse (neutropenic); assay type: in vivo; conditions: neutropenic CD-1 mice infected i.p.; intravenously twice, immediately and 5 hours after infection; survival on the 7th day
Procedure: as §6

gram positive bacteria = conditions: described by K. Shimanaka et al.; cited from earlier work

Structure (SMILES)	MIC of the compounds, Bacteroides fragilis ATCC 25285 L1011 [1]	MIC of the compounds, Staph. epidermidis ATCC 12228 L147 [2]	MIC of the compounds, Staph. haemolyticus L602 (Staph. haemolyticus L602)	MIC of the compounds, Staphylococcus aureus L165 [3]	MIC of the compounds, Strept. sanguis L1721 (Strept. sanguis L1721)	MIC of the compounds, Streptococcus pyogenes L49 [4]	MIC of the compounds, Strept. pneumoniae L44 (Strept. pneumoniae L44)	MIC of the compounds, Enterococc. faecalis ATCC 7080 L149 [5]	MIC of the compounds, Propionibact. acnes ATCC 6919 L1014 [6]	MIC of the compounds, Haemoph. influenzae ATCC 19418 L970 [7]	MIC of the compounds, Strept. agalactiae L310 (Strept. agalactiae L310)	MIC against staphylococci isolates (staphylococci isolates)	MIC against streptococci isolates (streptococci isolates)	MIC against enterococci isolates (enterococci isolates)	ED50 in experimental septicemia, S. aureus (L819) (S. aureus (L819))	ED50 in experimental septicemia, S. pyogenes (L49) (S. pyogenes (L49))	ED50 in experimental septicemia, E. faecalis (L1139) (E. faecalis (L1139))	antimicrobial activity against gram positive bacteria (gram positive bacteria)
CCN(CC)CCNC(=O)C1CCCN1C(=O)C1COC(c2csc(-c3ccc4c(n3)-c3csc(n3)-c3csc(n3)C(C(O)c3ccccc3)NC(=O)CNC(=O)c3nc(sc3COC)C(C(C)C)NC(=O)c3nc(sc3C)C(CC(=O)NC)NC(=O)c3csc-4n3)n2)=N1 (mixture of isomers) [Compound 3]	8 µg/mL	0.13 µg/mL	0.13 µg/mL	0.03 µg/mL	0.25 µg/mL	0.5 µg/mL	0.13 µg/mL	0.03 µg/mL	0.03 µg/mL	8 µg/mL	–	–	–	–	–	–	–	–
CCN(CC)CCNC(=O)C1CCCN1C(=O)C1COC(c2csc(-c3ccc4c(n3)-c3csc(n3)-c3csc(n3)C(C(O)c3ccccc3)NC(=O)CNC(=O)c3nc(sc3COC)C(C(C)C)NC(=O)c3nc(sc3C)C(CC(=O)NC)NC(=O)c3csc-4n3)n2)=N1 (stereo not shown) [Compound 3s]	8 µg/mL	0.13 µg/mL	0.13 µg/mL	0.06 µg/mL	0.13 µg/mL	0.25 µg/mL	0.13 µg/mL	0.06 µg/mL	0.03 µg/mL	8 µg/mL	0.5 µg/mL	≤ 0.5 µg/mL	≤ 1.0 µg/mL	≤ 0.13 µg/mL	1.5 mg/kg/dose	7 mg/kg/dose	0.67 mg/kg/dose	–
CNC(=O)CC1NC(=O)c2csc(n2)-c2ccc(-c3nc(C4=NC(C(=O)N5CCCC5C(N)=O)CO4)cs3)nc2-c2csc(n2)-c2csc(n2)C(C(C)C)NC(=O)CNC(=O)c2csc(n2)C(C(C)C)NC(=O)c2nc1sc2C (stereo not shown) [amythiamicin factor A]	–	–	–	–	–	–	–	–	–	–	–	–	–	–	–	–	–	shows antimicrobial activity against gram positive bacteria
